A short description of this series: Rhodamine release from chemically cross-linked poly(dimethyl siloxane) microcapsules (fluorescence photomicrographs, confocal microscopy). Type of series: physicochemical. The source says: FIGS. 18(a)-(c). A series of photomicrographs (200× magnification) depicting a population of rhodamine B-containing chemically cross-linked elastomeric microcapsules one hour and one year after manufacturing. […] In Particular:
Elastomer-Permeable Therapeutic Agent Microencapsulation. Rhodamine dye was encapsulated within chemically cross-linked poly(dimethyl siloxane) microcapsules utilizing the hydrophilic agent encapsulation methods at low concentrations due to the hydrophilicity of the aqueous solution. However, rhodamine is hydrophobic and permeates vulcanized poly(dimethyl siloxane) in the same fashion as a hydrophobic therapeutic agent. The resultant population of microspheres was sieved and re-suspended in a dilute aqueous poly(vinyl alcohol) solution. Upon resuspension in the rhodamine-free aqueous solution, a series of fluorescence photomicrographs were obtained.
To further investigate the shell-permeability and partition coefficient of the rhodamine within chemically cross-linked elastomeric microcapsules samples of the population of microcapsules that was tested for release were imaged by confocal microscopy.

For `CCN(CC)c1ccc2c(-c3ccccc3C(=O)O)c3ccc(=[N+](CC)CC)cc-3oc2c1` [Rhodamine dye, rhodamine B], the “extended release of a model therapeutic (duration)” value (rhodamine in aqueous cores of cross-linked poly(dimethyl siloxane) microcapsules, in dilute aqueous poly(vinyl alcohol), unstirred at room temperature) is recorded as “greater than one year”. In addition, the burst effect result (upon resuspension in rhodamine-free aqueous solution) is on record as “No burst effect was observed”.
